How the values were obtained:
[1] = system: MCF-10A cells; assay: RealTime-Glo MT cell viability (cytotoxicity) assay; format: cell-based, human; settings: 1 µM, 24, 48, 72 h
Experimental: The cytotoxicity of RES, A-1, and A-3 was measured using the RealTime-Glo^TM MT Cell Viability Assay (Promega, Madison, WI, USA). The cells (10,000 cells/well) were seeded into 96-well plates. After 24 h, they were treated with various 10-fold dilutions of RES, A-1, and A-3 with concentrations ranging from 0.1 µM to 1000 µM. Cells with 0.1% DMSO (ATCC; Manassas, VA, USA) were included as a control. Luminescence was measured every 12 h for 72 total hours in a Cytation^TM 5 (BioTek, Winooski, VT, USA) plate reader. All experiments were performed in triplicates.

[2] = system: MCF-10A cells; assay: Cell cycle analysis with PI (flow cytometry); format: cell-based, human; settings: 0.1 and 1 µM, 24, 48, 72 h
Experimental: (§1) Cells were seeded onto 6-well plates and treated with A-1 (0.1 µM and 1 µM) for 24, 48, and 72 h. Cells incubated with 0.01% DMSO (ATCC; Manassas, VA, USA) were used as a control. Then, MDA-MB-231 and MCF-10A cells were collected by trypsinization; MDA-MB-436 cells were collected by scraping. Treated cells were fixed with ice-cold 70% ethanol while vortexing and incubated for 1 h in 4 °C. Then, cells were washed with cold 1X DPBS, treated with 1 mg/mL of ribonuclease A, and incubated for 30 min at 37 °C. The cells were then stained with 10 µg/mL of propidium iodide (PI), incubated for 30 min at 37 °C, and analyzed by flow cytometry using BD FACS Aria Sorter (BD Biosciences, Franklin Lakes, NJ, USA). Data were analyzed with Modfit LT 5.0 software (Verity Software House; Topsham, ME, USA). All experiments were performed in triplicates.

[3] = system: MDA-MB-231 cells; assay: Cell cycle analysis with PI (flow cytometry); format: cell-based, human
Experimental: as §1

[4] = system: MDA-MB-436 cells; assay: Cell cycle analysis with PI (flow cytometry); format: cell-based, human
Experimental: as §1

[5] = system: MDA-MB-231 cells; assay: Annexin V-FITC/PI apoptosis assay (flow cytometry); format: cell-based, human; settings: mean ± SD
Experimental: (§2) Cells (10^6 cells/well) were seeded onto 6-well plates. After 24 h, the cells were incubated with A-1 (0.1 and 1 µM) for 24, 48, and 72 h. The control groups were incubated with 0.01% DMSO (ATCC; Manassas, VA, USA) for every hour. Then, cells were collected and washed twice with cold 1X PBS and stained with both annexin V-FITC and PI for 5 min at room temperature. The cells were analyzed by flow cytometry using BD FACS Aria (BD Biosciences, Franklin Lakes, NJ, USA). The positive controls (annexin negative/PI negative; annexin negative/PI positive; and annexin positive/PI negative) were used to set up compensation and set quadrants. The early apoptotic cells were measured in the quadrant of annexin V positive/PI negative and late apoptotic/necrotic cells were measured in the quadrant of annexin positive/PI positive. Data were analyzed with FlowJo™ v10.8 Software (BD Life Sciences; Ashland, OR, USA). All experiments were performed in triplicates.

[6] = system: MDA-MB-436 cells; assay: Annexin V-FITC/PI apoptosis assay (flow cytometry); format: cell-based, human; settings: mean ± SD
Experimental: as §2

[7] = system: human leukemia HL-60 cell line; set-up: method as in PMID 21067217; settings: 72 h treatment; cited from earlier work
[8] = system: peripheral blood mononuclear cells (PBMCs); set-up: method as in PMID 21067217; settings: cited from earlier work
[9] = system: UDP-glucuronosyltransferases; settings: in vitro metabolism; cited from earlier work

CC(C)/C=C/c1c(O)cc(/C=C/c2ccc(O)c(O)c2)cc1O [A-1, arachidin-1]
cytotoxicity in non-cancerous epithelial cells [1]: did not show any statistically significant cytotoxicity | change in cell cycle phase distribution [2]: no significant changes in the percentage of cells at different phases | percentage of cells in G2-M phase ([3]; 0.1 µM, 72 h): 27.73 ± 4.33% | percentage of cells in G2-M phase ([3]; 1 µM, 24 h): ~31.73 ± 4.00% | percentage of cells in G2-M phase ([3]; 1 µM, 48 h): ~25.13 ± 0.89% | percentage of cells in G2-M phase ([3]; 1 µM, 72 h): 31.28 ± 3.45% | cell cycle effect ([3]; 0.1 and 1 µM): cell arrest in the G2-M phase | percentage of cells in G2-M phase ([4]; 0.1 µM, 48 h): 25.82 ± 2.73% | percentage of cells in G2-M phase ([4]; 0.1 µM, 72 h): 38.89 ± 0.08% | percentage of cells in G2-M phase ([4]; 1 µM, 24 h): 23.97 ± 0.57% | percentage of cells in G2-M phase ([4]; 1 µM, 48 h): 31.07 ± 0.29% | percentage of cells in G2-M phase ([4]; 1 µM, 72 h): 36.88 ± 1.42% | cell cycle effect ([4]; 0.1 and 1 µM): increased the percentage of cells in the G2-M phase | percentage of cells in early apoptosis ([5]; 0.1 µM, 24 h): 21.29 ± 1.94% | percentage of cells in early apoptosis ([5]; 0.1 µM, 48 h): 63.47 ± 0.90% | percentage of cells in early apoptosis ([5]; 0.1 µM, 72 h): 53.1 ± 2.50% | percentage of cells in early apoptosis ([5]; 1 µM, 24 h): 24.76 ± 1.65% | percentage of cells in early apoptosis ([5]; 1 µM, 48 h): 68.67 ± 0.76% | percentage of cells in early apoptosis ([5]; 1 µM, 72 h): 51.77 ± 2.37% | percentage of early apoptotic cells ([6]; 0.1 µM, 24 h): 35.76 ± 4.10% | percentage of early apoptotic cells ([6]; 0.1 µM, 48 h): 44.90 ± 0.89% | percentage of early apoptotic cells ([6]; 0.1 µM, 72 h): 45.73 ± 0.96% | percentage of early apoptotic cells ([6]; 1 µM, 24 h): 35.27 ± 3.78% | percentage of early apoptotic cells ([6]; 1 µM, 48 h): 46.11 ± 3.40% | percentage of early apoptotic cells ([6]; 1 µM, 72 h): 38.77 ± 2.59% | IC50 [7]: 4.2 µM | cytotoxic effects on PBMCs [8]: no cytotoxic effects | glucuronidated products compared to non-prenylated analogs piceatannol and RES [9]: lower glucuronidated products
